# Results reported in article PMC7159882, “Polyunsaturated fatty acid analogues differentially affect cardiac NaV, CaV, and KV channels through unique mechanisms” (eLife, 2020).
# Target: T1, Kv7.1/KCNE1 (Homo sapiens, UniProt P51787)
# T1 construct: cRNA encoding Kv7.1 (UniProt: P51787), KCNE1 (UniProt: P15382.1); expressed in transfected cells; host or cells: Xenopus laevis oocytes (cRNA injection, Kv7.1:KCNE1 3:1 by weight)
# Experiment: Two-electrode voltage clamp of Kv7.1/KCNE1 expressed in Xenopus oocytes
# Assay type: cell-based
# Set-up: Fitted slope factor of conductance vs voltage relationship: unit of the concentration uncertain
# Conditions: 0.2 μM
# Method: Molecular Biology cRNA encoding Kv7.1 (UniProt: P51787), KCNE1 (UniProt: P15382.1), Nav1.5 (UniProt: Q14524.1), Nav β1 (UniProt: […]), Nav β3 (UniProt: […]), Cav1.2 (GenBank: CAA84346), Cav β3 (Uniprot: P54286), Cav β2 (Uniprot: P54288), and Cav α2δ (Uniprot: P13806) were transcribed using the mMessage mMachine T7 kit (Ambion). 50 ng of cRNA was injected into defolliculated Xenopus laevis oocytes (Ecocyte, Austin, TX): For Kv7.1/KCNE1 channel expression, we injected a 3:1, weight:weight (Kv7.1:KCNE1) cRNA ratio. For Nav1.5 channel expression, we injected a 2:1, weight:weight (Nav1.5:β1) cRNA ratio. For Cav1.2 channel expression, we injected a 2:1:1, weight:weight (Cav1.2:β3:α2δ) cRNA ratio. The exact stoichiometry for channel macromolecular complexes, including α -subunits and auxiliary subunits is not clear for many ion channels. For example, there have been multiple reported stoichiometries for Kv7.1:KCNE1 determined in heterologous expression systems with some groups reporting flexible stoichiometry of 4 Kv7.1: 1–4 KCNE1 and others reporting a fixed stoichiometry of 4 Kv7.1: 2 KCNE1 ([Murray et al., 2016]; [Nakajo et al., 2010]). The ratios of cRNA of α- and auxiliary subunits that we injected in Xenopus laevis oocytes are such that all α-subunits are assumed to be in complex with auxiliary subunits. This allows a more homogenous population of ion channels with auxiliary subunits. One caveat to expressing ion channels as macromolecular complexes is that there are many other auxiliary subunits that could associate with the channel α -subunit that are present in cardiomyocytes and have the potential to alter PUFA-induced effects, but that are not being co-expressed in our experiments. In this work, we are co-expressing some of the auxiliary subunits that have been primarily reported to associate with their respective α -subunits in cardiomyocytes. Following cRNA injection, cells were incubated for 72–96 hr in standard ND96 solution (96 mM NaCl, 2 mM KCl, 1 mM MgCl2, 1.8 mM CaCl2, 5 mM HEPES; pH = 7.5) containing 1 mM pyruvate at 16°C prior to electrophysiological recordings.
# Xenopus laevis oocytes were recorded in the two-electrode voltage clamp (TEVC) configuration. Recording pipettes were filled with 3 M KCl. The recording chamber was filled with ND96 (96 mM NaCl, 2 mM KCl, 1 mM MgCl2, 1.8 mM CaCl2, 5 mM HEPES; pH 7.5). For Cav1.2/β3/α2δ channel recordings, Xenopus oocytes were injected with 50 nl of 100 mM EGTA and incubated at 10°C for 30 min prior to electrophysiological recordings in order to sequester cytosolic calcium. In addition, Cav1.2/β3/α2δ channel recordings were done in Ca^2+-free solutions, using Ba^2+ as the charge carrier, to prevent calcium-dependent inactivation of Cav1.2/β3/α2δ channels. Calcium-dependent inactivation was not studied in this work, due to the presence of large calcium-activated chloride currents present in Xenopus laevis oocytes. PUFAs were obtained from Cayman Chemical (Ann Arbor, MI.) or synthesized in house (Linköping, Sweden) through methods previously described ([Bohannon et al., 2020]) and kept at −20 °C as 100 mM stock solutions in ethanol. […] PUFAs were perfused into the recording chamber using the Rainin Dynamax Peristaltic Pump (Model RP-1) (Rainin Instrument Co., Oakland, CA. USA).
# Electrophysiological recordings were obtained using Clampex 10.3 software (Axon, pClamp, Molecular Devices). To measure Kv7.1/KCNE1 currents we apply PUFAs as the membrane potential is stepped every 30 s from −80 mV to 0 mV for 5 s before stepping to −40 mV and back to −80 mV to ensure that the PUFA effects on the current at 0 mV reached steady state. A voltage-step protocol was used to measure the current vs. voltage (I-V) relationship before PUFA application and after the PUFA effects had reached steady state for each concentration of PUFA. Cells were held at −80 mV followed by a hyperpolarizing prepulse to −140 mV. […]
Fitted slope factor of conductance vs voltage relationship,Gmax/Gmax0,ΔV0.5 (voltage dependence of activation),SMILES
16.5 ± 0.49 mV,1.3 ± 0.1,-2.0 ± 0.8 mV,"CC/C=C\C/C=C\C/C=C\C/C=C\C/C=C\C/C=C\CCC(=O)NCC(=O)O [DHA-glycine, docosahexaenoyl glycine]"
16.9 ± 0.65 mV,1.0 ± 0.1,0.7 ± 0.8 mV,"CCCCC/C=C\C/C=C\C/C=C\C/C=C\CCCC(=O)NCCS(=O)(=O)O [N-AT, N-arachidonoyl taurine]"
17.9 ± 0.82 mV,1.2 ± 0.1,2.6 ± 2.4 mV,CCCCC/C=C\C/C=C\CC/C=C\CCCC(=O)NCCS(=O)(=O)O [Pin-taurine]

# Same assay, conditions: 0.2 μM; relative current at 0 mV
row,IKs I/I0,SMILES
1,1.3 ± 0.1,"CC/C=C\C/C=C\C/C=C\C/C=C\C/C=C\C/C=C\CCC(=O)NCC(=O)O [DHA-glycine, docosahexaenoyl glycine]"
2,1.0 ± 0.02,"CCCCC/C=C\C/C=C\C/C=C\C/C=C\CCCC(=O)NCCS(=O)(=O)O [N-AT, N-arachidonoyl taurine]"
3,1.1 ± 0.1,CCCCC/C=C\C/C=C\CC/C=C\CCCC(=O)NCCS(=O)(=O)O [Pin-taurine]

# Same assay, conditions: 0.7 μM
Fitted slope factor of conductance vs voltage relationship,Gmax/Gmax0,ΔV0.5 (voltage dependence of activation),SMILES
16.6 ± 0.45 mV,1.5 ± 0.1,-3.0 ± 1.0 mV,"CC/C=C\C/C=C\C/C=C\C/C=C\C/C=C\C/C=C\CCC(=O)NCC(=O)O [DHA-glycine, docosahexaenoyl glycine]"
17.2 ± 0.62 mV,0.9 ± 0.02,0.9 ± 1.1 mV,"CCCCC/C=C\C/C=C\C/C=C\C/C=C\CCCC(=O)NCCS(=O)(=O)O [N-AT, N-arachidonoyl taurine]"
17.7 ± 0.82 mV,1.3 ± 0.2,2.3 ± 3.5 mV,CCCCC/C=C\C/C=C\CC/C=C\CCCC(=O)NCCS(=O)(=O)O [Pin-taurine]

# Same assay, conditions: 0.7 μM; relative current at 0 mV
row,IKs I/I0,SMILES
1,1.7 ± 0.2,"CC/C=C\C/C=C\C/C=C\C/C=C\C/C=C\C/C=C\CCC(=O)NCC(=O)O [DHA-glycine, docosahexaenoyl glycine]"
2,1.0 ± 0.03,"CCCCC/C=C\C/C=C\C/C=C\C/C=C\CCCC(=O)NCCS(=O)(=O)O [N-AT, N-arachidonoyl taurine]"
3,1.4 ± 0.4,CCCCC/C=C\C/C=C\CC/C=C\CCCC(=O)NCCS(=O)(=O)O [Pin-taurine]

# Same assay, conditions: 2 μM
Fitted slope factor of conductance vs voltage relationship,Gmax/Gmax0,ΔV0.5 (voltage dependence of activation),SMILES
16.6 ± 0.52 mV,1.7 ± 0.2,-5.8 ± 0.9 mV,"CC/C=C\C/C=C\C/C=C\C/C=C\C/C=C\C/C=C\CCC(=O)NCC(=O)O [DHA-glycine, docosahexaenoyl glycine]"
17.4 ± 0.60 mV,0.9 ± 0.02,0.6 ± 1.1 mV,"CCCCC/C=C\C/C=C\C/C=C\C/C=C\CCCC(=O)NCCS(=O)(=O)O [N-AT, N-arachidonoyl taurine]"
18.3 ± 0.96 mV,2.0 ± 0.4,-4.9 ± 3.4 mV,CCCCC/C=C\C/C=C\CC/C=C\CCCC(=O)NCCS(=O)(=O)O [Pin-taurine]

# Same assay, conditions: 2 μM; relative current at 0 mV
row,IKs I/I0,SMILES
1,2.4 ± 0.5,"CC/C=C\C/C=C\C/C=C\C/C=C\C/C=C\C/C=C\CCC(=O)NCC(=O)O [DHA-glycine, docosahexaenoyl glycine]"
2,1.0 ± 0.04,"CCCCC/C=C\C/C=C\C/C=C\C/C=C\CCCC(=O)NCCS(=O)(=O)O [N-AT, N-arachidonoyl taurine]"
3,3.0 ± 0.4,CCCCC/C=C\C/C=C\CC/C=C\CCCC(=O)NCCS(=O)(=O)O [Pin-taurine]

# Same assay, conditions: 7 μM
Fitted slope factor of conductance vs voltage relationship,Gmax/Gmax0,ΔV0.5 (voltage dependence of activation),SMILES
17.0 ± 0.56 mV,1.9 ± 0.2,−10.5 ± 1.0 mV,"CC/C=C\C/C=C\C/C=C\C/C=C\C/C=C\C/C=C\CCC(=O)NCC(=O)O [DHA-glycine, docosahexaenoyl glycine]"
18.2 ± 0.59 mV,0.9 ± 0.03,–1.8 ± 2.6 mV,"CCCCC/C=C\C/C=C\C/C=C\C/C=C\CCCC(=O)NCCS(=O)(=O)O [N-AT, N-arachidonoyl taurine]"
18.8 ± 1.0 mV,,−23.8 ± 2.7 mV,CCCCC/C=C\C/C=C\CC/C=C\CCCC(=O)NCCS(=O)(=O)O [Pin-taurine]

# Same assay, conditions: 7 μM; listed as pin-taurine
Gmax/Gmax0,ΔV0.5 (voltage dependence of activation),SMILES
2.2 ± 0.4,-23.8 ± 2.7 mV,CCCCC/C=C\C/C=C\CC/C=C\CCCC(=O)NCCS(=O)(=O)O [Pin-taurine]

# Same assay, conditions: 7 μM; relative current at 0 mV
row,IKs I/I0,SMILES
1,6.8 ± 1.0 (p=0.01),CCCCC/C=C\C/C=C\CC/C=C\CCCC(=O)NCCS(=O)(=O)O [Pin-taurine]

# Same assay, conditions: 7 μM; relative current at 0 mV; listed as pin-taurine
row,IKs I/I0,SMILES
1,6.8 ± 1.0,CCCCC/C=C\C/C=C\CC/C=C\CCCC(=O)NCCS(=O)(=O)O [Pin-taurine]

# Same assay, conditions: 20 μM
Fitted slope factor of conductance vs voltage relationship,Gmax/Gmax0,ΔV0.5 (voltage dependence of activation),SMILES
17.9 ± 0.68 mV,2.0 ± 0.2,-16.5 ± 1.3 mV,"CC/C=C\C/C=C\C/C=C\C/C=C\C/C=C\C/C=C\CCC(=O)NCC(=O)O [DHA-glycine, docosahexaenoyl glycine]"
18.7 ± 0.73 mV,0.9 ± 0.02,-8.5 ± 4.9 mV,"CCCCC/C=C\C/C=C\C/C=C\C/C=C\CCCC(=O)NCCS(=O)(=O)O [N-AT, N-arachidonoyl taurine]"
16.8 ± 0.73 mV,1.9 ± 0.3,-51.6 ± 3.5 mV,CCCCC/C=C\C/C=C\CC/C=C\CCCC(=O)NCCS(=O)(=O)O [Pin-taurine]

# Same assay, conditions: 20 μM; relative current at 0 mV
row,IKs I/I0,SMILES
1,5.0 ± 1.3,"CC/C=C\C/C=C\C/C=C\C/C=C\C/C=C\C/C=C\CCC(=O)NCC(=O)O [DHA-glycine, docosahexaenoyl glycine]"
2,1.3 ± 0.2,"CCCCC/C=C\C/C=C\C/C=C\C/C=C\CCCC(=O)NCCS(=O)(=O)O [N-AT, N-arachidonoyl taurine]"
3,9.0 ± 1.4,CCCCC/C=C\C/C=C\CC/C=C\CCCC(=O)NCCS(=O)(=O)O [Pin-taurine]

# Same assay, conditions: I/I0 at 0 mV
row,concentrations at which the effects on IKs appear,SMILES
1,> 20 µM,"CCCCC/C=C\C/C=C\C/C=C\C/C=C\CCCC(=O)NCCS(=O)(=O)O [N-AT, N-arachidonoyl taurine]"
